The values below come from patent US9334263B2, “Compositions useful for treating disorders related to kit” (BLUEPRINT MEDICINES CORPORATION, priority 2013, dated 2016).

Structures are written as SMILES.

For one assay, the target named is T1, D816V Kit (Homo sapiens, UniProt P10721, D816V).
T1 construct: purchased Carna Bioscience 08-156
T1 sequence (P10721 26-976 D816V): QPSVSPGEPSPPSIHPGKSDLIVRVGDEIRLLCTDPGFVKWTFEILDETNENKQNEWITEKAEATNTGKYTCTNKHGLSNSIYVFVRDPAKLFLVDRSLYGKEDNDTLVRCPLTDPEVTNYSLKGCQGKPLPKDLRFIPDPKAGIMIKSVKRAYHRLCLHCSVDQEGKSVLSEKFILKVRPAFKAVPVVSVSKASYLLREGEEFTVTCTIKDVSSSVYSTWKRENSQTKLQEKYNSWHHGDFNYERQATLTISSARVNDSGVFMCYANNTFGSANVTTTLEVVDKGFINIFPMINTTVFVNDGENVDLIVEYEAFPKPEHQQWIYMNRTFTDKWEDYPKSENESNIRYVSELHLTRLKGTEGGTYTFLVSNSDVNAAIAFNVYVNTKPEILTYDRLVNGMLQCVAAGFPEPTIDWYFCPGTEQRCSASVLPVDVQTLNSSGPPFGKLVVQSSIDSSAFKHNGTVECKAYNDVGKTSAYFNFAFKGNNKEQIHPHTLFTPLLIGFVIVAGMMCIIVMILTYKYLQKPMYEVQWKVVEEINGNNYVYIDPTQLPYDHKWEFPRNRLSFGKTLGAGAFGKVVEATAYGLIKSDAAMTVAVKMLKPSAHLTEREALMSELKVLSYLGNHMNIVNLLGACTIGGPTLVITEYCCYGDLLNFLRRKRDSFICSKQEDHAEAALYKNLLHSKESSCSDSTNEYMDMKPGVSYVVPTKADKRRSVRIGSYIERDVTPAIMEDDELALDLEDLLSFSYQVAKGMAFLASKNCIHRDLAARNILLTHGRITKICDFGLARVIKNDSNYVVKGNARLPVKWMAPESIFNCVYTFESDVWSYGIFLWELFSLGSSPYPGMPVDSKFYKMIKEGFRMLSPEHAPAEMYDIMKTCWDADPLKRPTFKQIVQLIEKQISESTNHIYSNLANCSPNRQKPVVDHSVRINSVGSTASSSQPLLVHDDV
The assay is described as follows: Kit D816V assay at Km (Caliper electrophoretic mobility shift). The assay is classed as biochemical. The conditions noted are these: 15 uM ATP, 25 C, 90 minutes. The procedure, abridged:
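Read-out is the ratio of phosphorylated to unphosphorylated fluorescent peptide, resolved by mobility shift on a Caliper EZ Reader 2.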
On to `Cc1c(Nc2ncnc(N3CCN(c4ncc(C(C)c5ccccc5)cn4)CC3)n2)cnn1C[C@@H]1CNCCO1` (some centres unmarked) [Compound 243], for which the IC50 lay in the range of 0.00101 to 0.01 µM.
As to `CC(C)(c1ccccc1)c1cnc(N2CCN(c3ncnc(Nc4cnn(C[C@@H]5CNCCO5)c4)n3)CC2)nc1` [Compound 244], the IC50 was below 0.001 µM.
As to `Cc1c(Nc2ncnc(N3CCN(c4ncc(Cc5ccccc5)c(N)n4)CC3)n2)cnn1C[C@@H]1CNCCO1` [Compound 245], the IC50 was below 0.001 µM.
The same measure, in the same setting: in the case of `COc1nc(N2CCN(c3ncnc(Nc4cnn(C[C@@H]5CNCCO5)c4)n3)CC2)ncc1Cc1ccccc1` [Compound 246] it was 0.00101 to 0.01 µM; in that of `OC[C@@H]1CN(c2ncnc(Nc3cnn(CC4CNCCO4)c3)n2)CCN1c1ncc(Cc2ccccc2)cn1` (some centres unmarked) [Compound 248], below 0.001 µM; in that of `COc1cccc(Cc2cnc(N3CCN(c4ncnc(Nc5cnn(C[C@@H]6CNCCO6)c5)n4)CC3)nc2)c1` [Compound 249], 0.00101 to 0.01 µM.
Consider `CC(O)(c1ccccc1)c1cnc(N2CCN(c3ncnc(Nc4cnn(C[C@@H]5CNCCO5)c4)n3)CC2)nc1` (some centres unmarked) [Compound 250], for which the IC50 is below 0.001 µM.
For `Fc1ccccc1Sc1cnc(N2CCN(c3ncnc(Nc4ccc(C5CNCCO5)cc4)n3)CC2)nc1` (centres unmarked) [Compound 251], the IC50 lay within 0.00101 to 0.01 µM.
`CN(C)S(=O)(=O)Cc1ccc(Nc2ncnc(N3CCN(c4ncc(Cc5ccccc5)cn4)CC3)n2)cc1` [Compound 252]: the IC50 is 0.00101 to 0.01 µM.
Regarding `Fc1ccc(OCc2cnc(N3CCN(c4ncnc(Nc5cnn(C[C@@H]6CNCCO6)c5)n4)CC3)nc2)cc1` [Compound 253], the IC50 was 0.00101 to 0.01 µM.
Take `Fc1ccccc1Sc1cnc(N2CCN(c3ncnc(Nc4cnn(C[C@@H]5CNCCO5)c4)n3)CC2)nc1` [Compound 255]: the IC50 is below 0.001 µM.
With `Fc1cccc(Sc2cnc(N3CCN(c4ncnc(Nc5cnn(C[C@@H]6CNCCO6)c5)n4)CC3)nc2)c1` [Compound 257], the IC50 was in the range of 0.00101 to 0.01 µM.
The same measure, in the same setting: in the case of `Fc1ccc(Sc2ncc(N3CCN(c4ncnc(Nc5cnn(C[C@@H]6CNCCO6)c5)n4)CC3)nn2)cc1` [Compound 258] it was 0.00101 to 0.01 µM; in that of `CC(C)(O)CN1CCc2ccc(Nc3ncnc(N4CCN(c5ncc(Cc6ccccc6)cn5)CC4)n3)cc2C1` [Compound 262], below 0.001 µM; in that of `Cc1c(Nc2ncnc(N3CCN(c4ncc(Sc5ccccc5F)cn4)[C@H](C)C3)n2)cnn1C[C@H](O)CO` [Compound 264], 0.00101 to 0.01 µM.
In the case of `CC(C)(c1ccc(F)cc1)c1cnc(N2CCN(c3ncnc(Nc4cnn(C[C@@H]5CNCCO5)c4)n3)CC2)nc1` [Compound 267], the IC50 was below 0.001 µM.
On the same count and under the same terms, in the case of `C[C@](O)(c1ccc(F)cc1)c1cnc(N2CCN(c3ncnc(Nc4cnn(C[C@@H]5CNCCO5)c4)n3)CC2)nc1` [Compound 269] it was below 0.001 µM; in that of `Cc1c(Nc2ncnc(N3CCN(c4ncc(Cc5ccccc5F)cn4)CC3)n2)cnn1C[C@@H]1CNCCO1` [Compound 272], below 0.001 µM; in that of `Cc1c(Nc2ncnc(N3CCN(c4ncc(Sc5ccc(F)cc5)cn4)CC3)n2)cnn1C[C@@H]1CNCCO1` [Compound 273], 0.00101 to 0.01 µM.
The same measure, in the same setting: the same measure for `C[C@](N)(c1ccc(F)cc1)c1cnc(N2CCN(c3ncnc(Nc4ccc(N5CCC[C@H](O)C5)cc4)n3)CC2)nc1` [Compound 275]: below 0.001 µM; for `Cc1c(Nc2ncnc(N3CCN(c4ncc([C@@](C)(O)c5ccc(F)cc5)cn4)CC3)n2)cnn1C[C@@H]1CNCCO1` [Compound 276]: 0.00101 to 0.01 µM.
As for `Cc1c(Nc2ncnc(N3CCN(c4ncc([C@](C)(O)c5ccc(F)cc5)cn4)CC3)n2)cnn1C[C@@H]1CNCCO1` [Compound 277], the IC50 is below 0.001 µM.

In another assay the target is T2, Kit D816V (HMC1.2 cells, Kit V560G and D816V) (Homo sapiens, UniProt P10721, D816V/V560G).
T2 construct: endogenous in cells; host or cells: HMC1.2 cells
T2 sequence (P10721 26-976 V560G/D816V): as the sequence (P10721 26-976 D816V) above, with V535G counted along it
The assay is described as follows: HMC1.2 autophosphorylation assay (AlphaLISA, phospho-Y719 c-Kit). The assay is classed as cell-based. The conditions noted are these: Kit autophosphorylation at tyrosine 719, 90 minutes, read-out: Cellular Activity. In short, it runs like this:
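AlphaScreen signal comes from lysed HMC1.2 cells incubated with phospho-Y719 and total c-Kit antibodies (15 nM final), acceptor beads and then streptavidin donor beads, 2 h each at room temperature. Beforehand, cells deprived of serum overnight received compound for 90 min as a 10-point series, 25 uM–95.4 pM, 0.25% DMSO.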
(Bead proximity is the source of the signal in Alpha formats.)
On to `Cc1c(Nc2ncnc(N3CCN(c4ncc(C(C)c5ccccc5)cn4)CC3)n2)cnn1C[C@@H]1CNCCO1` (some centres unmarked) [Compound 243], for which the IC50 lay in the range of 0.01 to 0.1 µM.
For `CC(C)(c1ccccc1)c1cnc(N2CCN(c3ncnc(Nc4cnn(C[C@@H]5CNCCO5)c4)n3)CC2)nc1` [Compound 244], the IC50 lay within 0.01 to 0.1 µM.
On to `Cc1c(Nc2ncnc(N3CCN(c4ncc(Cc5ccccc5)c(N)n4)CC3)n2)cnn1C[C@@H]1CNCCO1` [Compound 245], for which the IC50 lay within 0.01 to 0.1 µM.
On the same count and under the same terms, the same measure for `COc1nc(N2CCN(c3ncnc(Nc4cnn(C[C@@H]5CNCCO5)c4)n3)CC2)ncc1Cc1ccccc1` [Compound 246]: 1 to 10 µM; for `OC[C@@H]1CN(c2ncnc(Nc3cnn(CC4CNCCO4)c3)n2)CCN1c1ncc(Cc2ccccc2)cn1` (some centres unmarked) [Compound 248]: 0.01 to 0.1 µM.
With `COc1cccc(Cc2cnc(N3CCN(c4ncnc(Nc5cnn(C[C@@H]6CNCCO6)c5)n4)CC3)nc2)c1` [Compound 249], the IC50 lay in the range of 0.01 to 0.1 µM.
As for `CC(O)(c1ccccc1)c1cnc(N2CCN(c3ncnc(Nc4cnn(C[C@@H]5CNCCO5)c4)n3)CC2)nc1` (some centres unmarked) [Compound 250], the IC50 lay in the range of 0.01 to 0.1 µM.
On the same count and under the same terms, in the case of `Fc1ccccc1Sc1cnc(N2CCN(c3ncnc(Nc4ccc(C5CNCCO5)cc4)n3)CC2)nc1` (centres unmarked) [Compound 251] it was 0.1 to 1 µM.
Same read-out and setting: in the case of `CN(C)S(=O)(=O)Cc1ccc(Nc2ncnc(N3CCN(c4ncc(Cc5ccccc5)cn4)CC3)n2)cc1` [Compound 252] it was 0.01 to 0.1 µM.
As to `Fc1ccc(OCc2cnc(N3CCN(c4ncnc(Nc5cnn(C[C@@H]6CNCCO6)c5)n4)CC3)nc2)cc1` [Compound 253], the IC50 was in the range of 0.01 to 0.1 µM.
For the compound `Fc1ccccc1Sc1cnc(N2CCN(c3ncnc(Nc4cnn(C[C@@H]5CNCCO5)c4)n3)CC2)nc1` [Compound 255], the IC50 was in the range of 0.01 to 0.1 µM.
As to `Fc1cccc(Sc2cnc(N3CCN(c4ncnc(Nc5cnn(C[C@@H]6CNCCO6)c5)n4)CC3)nc2)c1` [Compound 257], the IC50 lay in the range of 0.1 to 1 µM.
Regarding `Fc1ccc(Sc2ncc(N3CCN(c4ncnc(Nc5cnn(C[C@@H]6CNCCO6)c5)n4)CC3)nn2)cc1` [Compound 258], the IC50 lay in the range of 0.01 to 0.1 µM.
Take `CC(C)(O)CN1CCc2ccc(Nc3ncnc(N4CCN(c5ncc(Cc6ccccc6)cn5)CC4)n3)cc2C1` [Compound 262]: the IC50 was 0.01 to 0.1 µM.
Take `Cc1c(Nc2ncnc(N3CCN(c4ncc(Sc5ccccc5F)cn4)[C@H](C)C3)n2)cnn1C[C@H](O)CO` [Compound 264]: the IC50 lay within 0.1 to 1 µM.
Same read-out and setting: the same measure for `CC(C)(c1ccc(F)cc1)c1cnc(N2CCN(c3ncnc(Nc4cnn(C[C@@H]5CNCCO5)c4)n3)CC2)nc1` [Compound 267]: 0.01 to 0.1 µM.
As for `C[C@](O)(c1ccc(F)cc1)c1cnc(N2CCN(c3ncnc(Nc4cnn(C[C@@H]5CNCCO5)c4)n3)CC2)nc1` [Compound 269], the IC50 was 0.01 to 0.1 µM.
Take `Cc1c(Nc2ncnc(N3CCN(c4ncc(Cc5ccccc5F)cn4)CC3)n2)cnn1C[C@@H]1CNCCO1` [Compound 272]: the IC50 was in the range of 0.01 to 0.1 µM.
Take `Cc1c(Nc2ncnc(N3CCN(c4ncc(Sc5ccc(F)cc5)cn4)CC3)n2)cnn1C[C@@H]1CNCCO1` [Compound 273]: the IC50 is 0.01 to 0.1 µM.
On to `C[C@](N)(c1ccc(F)cc1)c1cnc(N2CCN(c3ncnc(Nc4ccc(N5CCC[C@H](O)C5)cc4)n3)CC2)nc1` [Compound 275], for which the IC50 fell in the range of 0.01 to 0.1 µM.
Same read-out and setting: in the case of `Cc1c(Nc2ncnc(N3CCN(c4ncc([C@@](C)(O)c5ccc(F)cc5)cn4)CC3)n2)cnn1C[C@@H]1CNCCO1` [Compound 276] it was 0.01 to 0.1 µM.
As to `Cc1c(Nc2ncnc(N3CCN(c4ncc([C@](C)(O)c5ccc(F)cc5)cn4)CC3)n2)cnn1C[C@@H]1CNCCO1` [Compound 277], the IC50 lay within 0.01 to 0.1 µM.
